Converted amounts (≈) assume the structure as drawn. The source made the active and inactive calls. The calls are words filed in the database; no cut-off is given here.
Columns and labels:
[1] = molecular target: Rhodesain (Trypanosoma brucei rhodesiense) (UniProt Q95PM0); assay: Inhibition of Trypanosoma brucei rhodesiense rhodesain at 140 uM
[2] = system: Trypanosoma brucei brucei; assay: Trypanocidal activity against Trypanosoma brucei brucei after 48 hrs; format: functional, organism-based
[3] = system: J774; assay: Cytotoxicity against J774.1 cell line after 48 hrs; format: functional, cell-based; details: Mus musculus, J774, 48 h
[4] = system: J774; assay: Selectivity index, IC50 for J774.1/IC50 for Trypanosoma brucei brucei; format: functional
[5] = molecular target: Rhodesain (Trypanosoma brucei rhodesiense, UniProt Q95PM0); assay: Inhibition of Trypanosoma brucei rhodesiense rhodesain
[6] = molecular target: Rhodesain (Trypanosoma brucei rhodesiense) (UniProt Q95PM0); assay: Inhibition of Trypanosoma brucei rhodesiense rhodesain at 200 uM

Sequence of Rhodesain (Q95PM0 whole entry): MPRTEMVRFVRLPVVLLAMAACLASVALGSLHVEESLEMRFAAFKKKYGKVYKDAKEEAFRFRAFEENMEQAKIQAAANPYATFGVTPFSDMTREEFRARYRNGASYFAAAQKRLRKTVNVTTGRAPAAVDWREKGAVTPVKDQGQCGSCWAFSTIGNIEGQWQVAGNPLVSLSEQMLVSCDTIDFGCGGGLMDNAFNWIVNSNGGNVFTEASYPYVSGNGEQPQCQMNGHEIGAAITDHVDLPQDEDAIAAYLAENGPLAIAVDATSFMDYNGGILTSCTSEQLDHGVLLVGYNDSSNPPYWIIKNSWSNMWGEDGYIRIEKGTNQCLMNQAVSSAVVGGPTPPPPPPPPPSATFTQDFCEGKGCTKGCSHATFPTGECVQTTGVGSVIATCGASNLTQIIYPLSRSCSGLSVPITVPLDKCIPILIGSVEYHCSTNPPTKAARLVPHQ
Sequence of Rhodesain (Trypanosoma brucei rhodesiense) (Q95PM0 1-450): as the sequence (Q95PM0 whole entry) above

Structure (SMILES)	inhibition [1]	IC50 [2] [µM]	MIC [2] [µM]	IC50 [3] [µM]	Ratio IC50 [4]	Ki [5] [µM]	inhibition [6] [%]
CC(C)C[C@H](NC(=O)OC(C)(C)C)C(=O)N1CCC[C@@H](C(=O)N2[C@H](C(=O)O)[C@H]2C(=O)O)C1	inactive						
CC1CS(=O)(=O)CCN1/N=C/c1ccc([N+](=O)[O-])o1 (stereo not given) [NIFURTIMOX]		3.4	200 (≈ 57.5 µg/mL)	> 200	>58		
CCOC(=O)[C@H]1[C@H](C(=O)OCC)N1C(=O)[C@@H]1CCCN(C(=O)[C@H](CC(C)C)NC(=O)OC(C)(C)C)C1		> 100		> 100		1.9	
C[C@H](NC(=O)[C@H](Cc1ccccc1)NC(=O)OC(C)(C)C)C(=O)N1[C@H](C(=O)OCc2ccccc2)[C@H]1C(=O)OCc1ccccc1		26.7		> 100	>3.7	1.9	
C[C@@H](NC(=O)[C@H](Cc1ccccc1)NC(=O)OC(C)(C)C)C(=O)N1[C@H](C(=O)O)[C@H]1C(=O)O						0.8	
CC(C)(C)OC(=O)NCC(=O)N1CCC[C@H](C(=O)N2[C@H](C(=O)O)[C@H]2C(=O)O)C1	inactive						
CCOC(=O)[C@@H]1[C@@H](C(=O)OCC)N1C(=O)[C@H]1CCCN(C(=O)[C@H](CC(C)C)NC(=O)OC(C)(C)C)C1		> 100		> 100		1	
CC(C)C[C@H](NC(=O)OC(C)(C)C)C(=O)N1CCC[C@H](C(=O)N2[C@H](C(=O)O)[C@H]2C(=O)O)C1	inactive						
CCOC(=O)[C@H]1[C@H](C(=O)OCC)N1C(=O)CCCCCNC(=O)CCCC[C@@H]1SC[C@@H]2NC(=O)N[C@@H]21		> 100		> 100		0.6	
CC(C)C[C@H](NC(=O)OC(C)(C)C)C(=O)N1CCC[C@@H](C(=O)N2[C@H](C(=O)OCc3ccccc3)[C@H]2C(=O)OCc2ccccc2)C1		25.6		> 100	>3.9	0.6	
CC(C)(C)OC(=O)NCC(=O)N1CCC[C@@H]1C(=O)N1[C@H](C(=O)OCc2ccccc2)[C@H]1C(=O)OCc1ccccc1		> 100		> 100		1.6	
CC(C)C[C@H](NC(=O)OC(C)(C)C)C(=O)N1CCC[C@H]1C(=O)N1[C@@H](C(=O)OCc2ccccc2)[C@@H]1C(=O)OCc1ccccc1		10.9	125 (≈ 77.7 µg/mL)	> 125	>11.5	0.5	
Cc1ccc(C(=O)Nc2ccc(S(=O)(=O)[O-])c3cc(S(=O)(=O)[O-])cc(S(=O)(=O)[O-])c23)cc1NC(=O)c1cccc(NC(=O)Nc2cccc(C(=O)Nc3cc(C(=O)Nc4ccc(S(=O)(=O)[O-])c5cc(S(=O)(=O)[O-])cc(S(=O)(=O)[O-])c45)ccc3C)c2)c1.[Na+].[Na+].[Na+].[Na+].[Na+].[Na+] [SURAMIN HEXASODIUM]		0.31	1	> 1000	>3225		31.5
C[C@H](NC(=O)[C@H](Cc1ccccc1)NC(=O)OC(C)(C)C)C(=O)N1[C@H](C(=O)O)[C@H]1C(=O)O						0.5	
CC(C)(C)OC(=O)NCC(=O)N1CCC[C@@H]1C(=O)N1[C@H](C(=O)O)[C@H]1C(=O)O	inactive	> 100		> 100			
CC(C)C[C@H](NC(=O)OC(C)(C)C)C(=O)N1CCC[C@@H]1C(=O)N1[C@H](C(=O)OCc2ccccc2)[C@H]1C(=O)OCc1ccccc1		31.4		> 100	>3.2	1.2	
CC(C)C[C@@H](NC(=O)OC(C)(C)C)C(=O)N1CCC[C@H](C(=O)N2[C@H](C(=O)OCc3ccccc3)[C@H]2C(=O)OCc2ccccc2)C1		34		> 100	>2.9	0.7	
C[C@@H](NC(=O)[C@H](Cc1ccccc1)NC(=O)OC(C)(C)C)C(=O)N1[C@H](C(=O)OCc2ccccc2)[C@H]1C(=O)OCc1ccccc1		30.5		> 100	>3.2	1.2	
CC(C)C[C@@H](NC(=O)OC(C)(C)C)C(=O)N1CCC[C@@H](C(=O)N2[C@H](C(=O)OCc3ccccc3)[C@H]2C(=O)OCc2ccccc2)C1		34		> 100	>2.9	0.7	
Nc1nc(N)nc(Nc2ccc([As]3SCC(CO)S3)cc2)n1 (stereo not given) [MELARSOPROL]		0.0026		4.3	1653		94.3
CC(C)C[C@H](NC(=O)OC(C)(C)C)C(=O)N1CCC[C@H](C(=O)N2[C@H](C(=O)OCc3ccccc3)[C@H]2C(=O)OCc2ccccc2)C1		25.6		> 100	>3.9	0.6	
CCOC(=O)[C@@H]1[C@@H](C(=O)OCC)N1C(=O)[C@@H]1CCCN1C(=O)[C@H](CC(C)C)NC(=O)OC(C)(C)C		> 100		> 100		3.1	
CCOC(=O)[C@@H]1[C@@H](C(=O)OCC)N1C(=O)C1CCN(C(=O)[C@H](CC(C)C)NC(=O)OC(C)(C)C)CC1		> 100		> 100		1.4	
CCOC(=O)[C@@H]1[C@@H](C(=O)OCC)N1C(=O)[C@@H]1CCCN(C(=O)[C@H](CC(C)C)NC(=O)OC(C)(C)C)C1		> 100		> 100		1	

Structure (SMILES)	inhibition [1]	IC50 [2] [µM]	MIC [2] [µM]	IC50 [3] [µM]	Ratio IC50 [4]	Ki [5] [µM]	inhibition [6] [%]
CCOC(=O)[C@H]1[C@H](C(=O)OCC)N1C(=O)[C@@H]1CCN1C(=O)[C@H](CC(C)C)NC(=O)OC(C)(C)C		20.6		> 100	>4.8	3.1	
CC(C)(C)OC(=O)NCC(=O)N1CCC[C@H]1C(=O)N1[C@H](C(=O)OCc2ccccc2)[C@H]1C(=O)OCc1ccccc1		> 100		> 100		3.1	
CC(C)(C)OC(=O)NCC(=O)N1CCC[C@@H](C(=O)N2[C@H](C(=O)O)[C@H]2C(=O)O)C1	inactive						
CC(C)C[C@@H](NC(=O)OC(C)(C)C)C(=O)N1CCC[C@H]1C(=O)N1[C@H](C(=O)OCc2ccccc2)[C@H]1C(=O)OCc1ccccc1		34.3		> 100	>2.9	1.1	
C[C@@H](NC(=O)[C@@H](Cc1ccccc1)NC(=O)OC(C)(C)C)C(=O)N1[C@H](C(=O)O)[C@H]1C(=O)O						5	
CC(C)C[C@H](NC(=O)OC(C)(C)C)C(=O)N1CCC[C@H]1C(=O)N1[C@H](C(=O)O)[C@H]1C(=O)O	inactive						
CCOC(=O)[C@H]1[C@H](C(=O)OCC)N1C(=O)[C@H]1CCCN(C(=O)[C@H](CC(C)C)NC(=O)OC(C)(C)C)C1		> 100		> 100		1.9	
CC(C)(C)OC(=O)NCC(=O)N1CCC[C@@H](C(=O)N2[C@H](C(=O)OCc3ccccc3)[C@H]2C(=O)OCc2ccccc2)C1		36.4		> 100	>2.7	1.1	
CC(C)(C)OC(=O)NCC(=O)N1CCC[C@H](C(=O)N2[C@H](C(=O)OCc3ccccc3)[C@H]2C(=O)OCc2ccccc2)C1		36.4		> 100	>2.7	1.1	
CCOC(=O)[C@@H]1[C@@H](C(=O)OCC)N1C(=O)[C@@H]1CN1C(=O)[C@@H](CC(C)C)NC(=O)OC(C)(C)C		28.3		> 100	>3.5	1.6	
N=C(N)c1ccc(OCCCCCOc2ccc(C(=N)N)cc2)cc1.O=S(=O)(O)CCO.O=S(=O)(O)CCO [PENTAMIDINE ISETHIONATE]		0.0029		41.6	14345		27.9
CC(C)(C)OC(=O)NCC(=O)N1CCCC[C@H]1C(=O)N1[C@H](C(=O)OCc2ccccc2)[C@H]1C(=O)OCc1ccccc1		27.6				0.7	
CCOC(=O)[C@H]1[C@H](C(=O)OCC)N1C(=O)C1CCN(C(=O)[C@H](CC(C)C)NC(=O)OC(C)(C)C)CC1		> 100		> 100		3.3	
C[C@@H](NC(=O)[C@@H](Cc1ccccc1)NC(=O)OC(C)(C)C)C(=O)N1[C@H](C(=O)OCc2ccccc2)[C@H]1C(=O)OCc1ccccc1		25.8		> 100	>3.8	3.9	
CC(C)C[C@H](NC(=O)OC(C)(C)C)C(=O)N1CC[C@@H]1C(=O)N1[C@H](C(=O)OCc2ccccc2)[C@H]1C(=O)OCc1ccccc1		30.8		37.2	1.2	0.8	
CC(C)C[C@@H](NC(=O)OC(C)(C)C)C(=O)N1CCC[C@@H](C(=O)N2[C@H](C(=O)O)[C@H]2C(=O)O)C1	inactive						
CCOC(=O)[C@H]1[C@H](C(=O)OCC)N1C(=O)[C@H]1CCN1C(=O)[C@H](CC(C)C)NC(=O)OC(C)(C)C		20.6		> 100	>4.8	3.1	
CC(C)C[C@H](NC(=O)OC(C)(C)C)C(=O)N1CCC[C@H]1C(=O)N1[C@H](C(=O)OCc2ccccc2)[C@H]1C(=O)OCc1ccccc1		11.1	125 (≈ 77.7 µg/mL)	> 125	>11.3	2.3	
C[C@H](NC(=O)[C@@H](Cc1ccccc1)NC(=O)OC(C)(C)C)C(=O)N1[C@H](C(=O)O)[C@H]1C(=O)O						0.1	
CC(C)C[C@H](NC(=O)OC(C)(C)C)C(=O)N1CC[C@H]1C(=O)N1[C@H](C(=O)OCc2ccccc2)[C@H]1C(=O)OCc1ccccc1		30.8		37.2	1.2	0.8	
CC(C)C[C@@H](NC(=O)OC(C)(C)C)C(=O)N1CCC[C@H](C(=O)N2[C@H](C(=O)O)[C@H]2C(=O)O)C1	inactive						
CC(C)C[C@@H](NC(=O)OC(C)(C)C)C(=O)N1CCC[C@@H]1C(=O)N1[C@H](C(=O)OCc2ccccc2)[C@H]1C(=O)OCc1ccccc1		35.2		> 100	>2.8	2.8	
CC(C)C[C@H](NC(=O)OC(C)(C)C)C(=O)N1CCC(C(=O)N2[C@H](C(=O)O)[C@H]2C(=O)O)CC1	inactive						
CC(C)(C)OC(=O)NCC(=O)N1CCC[C@H]1C(=O)N1[C@H](C(=O)O)[C@H]1C(=O)O		> 100		> 100		0.9	

From ChEMBL document CHEMBL1147010, “Aziridine-2,3-dicarboxylate inhibitors targeting the major cysteine protease of Trypanosoma brucei as lead trypanocidal agents” (Bioorg Med Chem Lett, 2006)
